Data published in publication PMC4199632, “Exploring the Anti-Cancer Activity of Novel Thiosemicarbazones Generated through the Combination of Retro-Fragments: Dissection of Critical Structure-Activity Relationships” (PLoS ONE, 2014).

Assays:
[1] = tested on: HeLa cervical carcinoma cells; experiment: Proliferation assay (crystal violet, 72 h); format: cell-based; conditions: Homo sapiens, 72 h incubation, mean ±SD (3 experiments)
Procedure: (§1) The human cancer cell types (neuroepithelioma (SK-N-MC), colon cancer (HCT116 with wild-type p53 (p53^+/+)), Burkitt's lymphoma (Raji) and cervical carcinoma (HeLa)) cells and normal human dermal fibroblasts (NHDF) were obtained from the American Type Culture Collection (ATCC, Manassas, VA, USA). HCT116 null p53 (p53^−/−) cells were obtained from the Maria Sklodowska-Curie Memorial Cancer Center and Institute of Oncology, Poland.
(§2) The SK-N-MC cells were cultured in minimum essential medium (MEM; Life Technologies, Grand Island, New York, USA) containing 10% (v/v) fetal bovine serum (FBS; Life Technologies), 1 mM sodium pyruvate (Life Technologies), 1% (v/v) non-essential amino acids (Life Technologies), 2 mM L-glutamine (Life Technologies), 100 U/mL penicillin (Life Technologies), 100 µg/mL streptomycin (Life Technologies) and 0.28 µg/mL fungizone (Bristol Myers Squibb Pharmaceuticals, Montreal, Canada). The HCT116 and NHDF cells were grown in Dulbecco's modified Eagle's medium (DMEM; Sigma-Aldrich) supplemented with 12% (v/v) heat-inactivated FBS (HCT116; Life Technologies) or 15% (v/v) FBS (NHDF; Life Technologies), 100 µg/mL of gentamicin (Polfa Warszawa S.A., Warsaw, Poland), 100 µg/mL of streptomycin (Polfa) and 100 U/mL of penicillin (Polfa). The Raji and HeLa cells were cultured in Roswell Park Memorial Institute medium (RPMI-1640; Sigma-Aldrich) with the addition of 10% (v/v) heat-inactivated FBS (Life Technologies) and the supplements described for SK-N-MC cells above. All cell lines were cultured under standard conditions at 37°C in a humidified atmosphere at 5% CO2 and were subcultured every 3–4 days as required.
(§3) The cells were seeded in 96-well plates (SK-N-MC: 1.5×10^4 cells/well; HeLa: 5.0×10^3 cells/well; Raji: 3.0×10^3 cells/well; HCT116: 3.5×10^3 cells/well; NHDF: 3.0×10^3 cells/well) 24 h prior to the addition of the novel compounds. The assays were performed using a 72 h (SK-N-MC, Raji, HeLa) or 96 h (HCT 116, NHDF) incubation period with the agents at 37°C. […] Additionally, DFO and Dp44mT were included as positive controls in all experiments as their activity is well characterized, [42], [50].
(§4) Chelator stock solutions were prepared in DMSO and diluted in media so that the final [DMSO] <0.05%. The results were expressed as a percentage of the control and the resulting IC50 values were calculated using GraphPad Prism 5 (GraphPad Software, Inc., La Jolla, CA, USA). The IC50 was defined as the concentration necessary to reduce the absorbance to 50% of the untreated control. Each individual compound was tested in triplicate in a single experiment, with each experiment being repeated three times. After incubation of HCT 116 and NHDF cells with the tested compounds, 20 µL of the CellTiter 96 Aqueous One Solution - MTS (Promega, Madison, WI, USA) solution was added to each well (with 100 µL of DMEM without phenol red) and incubated for 1 h/37°C. The optical density of the samples was analyzed at 490 nm.
(§5) MTT (3-[4,5-dimethylthiazol-2-yl]-2,5-diphenyltetrazolium bromide) was used to evaluate the anti-proliferative effects of the chelators in SK-N-MC and Raji cells. Following incubation with the investigated compounds, 10 µL of MTT (5 mg/mL in PBS; Sigma-Aldrich) was added to each well. After a 2 h (SK-N-MC) or 4 h (Raji) incubation, the plates were centrifuged, and the cells were lysed with 100 µL of 10% SDS-50% isobutanol in 0.01 M HCl (SK-N-MC) or DMSO (Raji). The absorbance was measured at 570 nm. The anti-proliferative effects of these novel agents on HeLa cells were estimated using crystal violet staining (0.5% crystal violet solution for 10 min). Finally, the wells were rinsed with water and the cells were lysed with 2% SDS. The optical density of the samples was analyzed at 595 nm.

[2] = Ascorbate oxidation assay (iron complexes); format: biochemical; conditions: iron complex, IBE 3
Procedure: The ability of the iron complexes of the novel ligands to mediate the oxidation of the physiological substrate, ascorbate, was examined using established methods, [18], [22], [52], [53]. Ascorbic acid (100 µM) was prepared immediately prior to each experiment and was incubated in the presence of Fe^III (10 µM; as FeCl3), the chelator (1–60 µM) and a 50-fold molar excess of citrate (500 µM). The absorbance at 265 nm was measured after 10 and 40 min and the difference in absorbance at these time points was calculated. The results of these experiments were expressed as iron-binding equivalents (IBE) due to the different denticity of the chelators examined. The chelators, Dp44mT, DFO and ethylenediaminetetraacetic acid (EDTA) were used as controls as the ability of their iron complexes to oxidize ascorbate has been extensively characterized, [15], [52], [53].
The ability of the iron complexes of the novel TSCs to catalyze the oxidation of the physiological substrate, ascorbate, was important to assess as redox cycling may play a critical role in their anti-proliferative activity, [15], [18], [52], [53]. Thus, the oxidation of ascorbate mediated by the iron complexes of series 1–6 were examined in comparison to the iron complexes of the control compounds, DFO, EDTA and Dp44mT, as the ability of the latter to oxidize ascorbate is well characterized, [15], [52], [53], [68]. The results were expressed as a percentage of the control (no chelator) at iron-binding equivalents (IBEs) of 0.1 (excess “free” iron), 1 (iron-chelator complexes with a fully filled coordination sphere), or 3 (excess free chelator), due to the different denticity of the chelators examined (Fig. 10).
Figure 10 Effect of the iron complexes of (A) series 1, (B) series 2, (C) series 3, (D) series 4, (E) series 5 and (F) series 6 chelators, relative to DFO, Dp44mT and EDTA, on ascorbate oxidation. Chelators at iron-binding equivalent (IBE) ratios of 0.1, 1, and 3 were incubated in the presence of Fe^III (10 µM) and ascorbate (100 µM). The UV-Vis absorbance at 265 nm was recorded after 10 and 40 min, and the difference between the time points was calculated. Results are mean ±SD (3 experiments).

[3] = tested on: normal human dermal fibroblast (NHDF) cells; experiment: Proliferation assay (MTS, 96 h), normal mortal cells; format: cell-based; conditions: Homo sapiens, NHDF, 96 h, 96 h incubation, mean ±SD (3 experiments)
Procedure: as §1, §2, §3, §4

[4] = tested on: HCT116 p53−/− colon cancer cells; experiment: Proliferation assay (MTS, 96 h); format: cell-based, human; conditions: Homo sapiens, HCT-116, 96 h, 96 h incubation, MTS; mean ±SD (3 experiments)
Procedure: as §1, §2, §3, §4

[5] = tested on: HCT116 p53+/+ colon cancer cells; experiment: Proliferation assay (MTS, 96 h); format: cell-based, human; conditions: Homo sapiens, HCT-116; 96 h incubation, MTS; mean ±SD (3 experiments)
Procedure: as §1, §2, §3, §4

[6] = tested on: SK-N-MC neuroepithelioma cells; experiment: Proliferation assay (MTT, 72 h); format: cell-based; conditions: Homo sapiens, 72 h incubation, mean ±SD (3 experiments)
Procedure: as §1, §2, §3, §4, §5

[7] = tested on: Raji Burkitt's lymphoma cells; experiment: Proliferation assay (MTT, 72 h); format: cell-based; conditions: Homo sapiens, 72 h incubation, mean ±SD (3 experiments)
Procedure: as §1, §2, §3, §4, §5

Compound | IC50 [1] [µM] | IC50 [4] [µM] | IC50 [5] [µM] | IC50 [6] [µM] | IC50 [7] [µM] | Ascorbate oxidation (% of the control) ([2]; FeIII 10 µM, ascorbate 100 µM) | IC50 [3] [µM] | Ascorbate oxidation compared with controls [2]
CCN1CCN(C(=S)N/N=C/c2ccc3cccc(O)c3n2)CC1 [3a] | 3.41 ± 1.46 | 8.83 ± 0.63 | 9.25 ± 1.42 | 0.82 ± 0.61 | 0.2 ± 0.02 | – | 15.8 ± 4.6 | increased levels of ascorbate oxidation
CN(C(=S)N/N=C/c1c(O)ccc2cccnc12)C1CCCCC1 [4f] | 13.3 ± 1 | 18.9 ± 3.6 | 19 ± 0.5 | > 6.25 | 0.46 ± 0.23 | – | 9.18 ± 3.68 | –
Oc1cccc2ccc(/C=N/NC(=S)N3CCN(c4ccccn4)CC3)nc12 [3d] | 6.59 ± 0.13 | 8.46 ± 0.25 | 8.41 ± 1.78 | > 6.25 | 0.12 ± 0.04 | – | 10.2 ± 2.4 | –
Oc1ccc2cccnc2c1/C=N/NC(=S)N1CCN(c2cnccn2)CC1 [4e] | 3.49 ± 0.04 | 9.44 ± 1.35 | 10.1 ± 0.7 | 4.17 ± 1.44 | 4.55 ± 2.52 | – | 9.56 ± 1.44 | –
S=C(N/N=C/c1cnc2ccccc2n1)N1CCN(c2ccccc2)CC1 [5b] | 6.05 ± 2.73 | 2.24 ± 1.47 | 3.92 ± 0.74 | 3.44 ± 1.12 | 0.5 ± 0.05 | – | 9.61 ± 0.9 | –
S=C(N/N=C/c1cnc2ccccc2n1)N1CCN(c2cnccn2)CC1 [5e] | 3.77 ± 1.71 | 8.49 ± 3.05 | 5.73 ± 0.75 | 1.98 ± 0.68 | 0.27 ± 0.01 | – | 15.8 ± 5.1 | increased levels of ascorbate oxidation
CCN1CCN(C(=S)N/N=C/c2ccccc2O)CC1 [6a] | 22.1 ± 5.4 | > 25 | > 25 | > 6.25 | 10.2 ± 6.6 | – | > 25 | decreased ascorbate oxidation relative to the control

The next compounds have a lower IC50 [1] than those just listed; values first:

IC50 [1] [µM] | IC50 [4] [µM] | IC50 [5] [µM] | IC50 [6] [µM] | IC50 [7] [µM] | Compound | Ascorbate oxidation (% of the control) ([2]; FeIII 10 µM, ascorbate 100 µM) | IC50 [3] [µM] | Ascorbate oxidation compared with controls [2]
1.78 ± 0.77 | 9.41 ± 1.04 | 9.4 ± 0.8 | 2.33 ± 0.09 | 0.49 ± 0.09 | S=C(N/N=C/c1cnc2ccccc2n1)N1CCN(c2ccccn2)CC1 [5d] | – | 7.13 ± 0.82 | decreased ascorbate oxidation relative to the control
1.56 ± 0.44 | 0.48 ± 0.15 | 0.088 ± 0.044 | 0.48 ± 0.1 | 0.29 ± 0.11 | S=C(N/N=C/c1ccc2ccccc2n1)N1CCN(c2cnccn2)CC1 [2e] | 200–265% | 9.44 ± 3.84 | –
0.48 ± 0.31 | 0.04 ± 0.003 | 0.02 ± 0.002 | 0.18 ± 0.09 | 0.08 ± 0.02 | CCN1CCN(C(=S)NN=C(c2ccccn2)c2ccccn2)CC1 [1a] | – | 0.017 ± 0.004 | –
